Experimental data reported in US6720423B2, “Dihydrobenzofuran and dihydrobenzothiophene 2,4-pentadienoic acid derivatives having selective activity for retinoid X (RXR) receptors” (Allergan, Inc., priority 2002, dated 2004).

Tests used:
[1] = biological target: T1, RXRβ (UniProt P28704); test: ligand binding assay, RXRβ; set-up: other: RXRβ; last entry of cell; settings: last entry of cell, read-out: RXR Bind Ki (nM) β
T1 sequence (P28704 1-520): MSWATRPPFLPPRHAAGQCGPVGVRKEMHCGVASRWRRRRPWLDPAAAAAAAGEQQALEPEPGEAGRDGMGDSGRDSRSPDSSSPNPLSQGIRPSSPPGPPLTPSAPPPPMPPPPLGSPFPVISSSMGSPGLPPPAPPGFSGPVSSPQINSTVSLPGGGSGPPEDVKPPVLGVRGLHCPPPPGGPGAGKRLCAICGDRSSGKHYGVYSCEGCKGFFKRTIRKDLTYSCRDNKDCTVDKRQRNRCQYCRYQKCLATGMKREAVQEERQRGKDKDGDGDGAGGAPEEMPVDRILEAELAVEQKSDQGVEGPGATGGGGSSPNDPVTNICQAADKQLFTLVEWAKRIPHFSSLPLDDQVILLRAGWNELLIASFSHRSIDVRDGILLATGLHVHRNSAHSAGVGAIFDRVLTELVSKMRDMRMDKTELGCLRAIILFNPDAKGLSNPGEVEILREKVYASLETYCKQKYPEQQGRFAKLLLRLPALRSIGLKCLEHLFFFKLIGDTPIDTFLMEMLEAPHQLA
Source text: (§1) A holoreceptor transactivation assay and a ligand binding assay which measure the antagonist/agonist like activity of the compounds of the invention, or their ability to bind to the several retinoid receptor subtypes, respectively, are described in published PCT Application No. WO WO93/11755 (particularly on pages 30-33 and 37-41) published on Jun. 24, 1993, the specification of which is also incorporated herein by reference. A detailed experimental procedure for holoreceptor transactivations has been described by Heyman et al. Cell 68, 397-406, (1992); Allegretto et al. J. Biol. Chem. 268, 26625-26633, and Mangelsdorf et al. The Retinoids: Biology, Chemistry and Medicine, pp 319-349, Raven Press Ltd., New York, which are expressly incorporated herein by reference. The results obtained in this assay are expressed in EC50 numbers, as they are also in the chimeric receptor transactivation assay. The results of ligand binding assay are expressed in Kd numbers. (See Cheng et al. Biochemical Pharmacology Vol. 22 pp 3099-3108, expressly incorporated herein by reference.)

[2] = biological target: T2, RXRα (Homo sapiens, UniProt P19793); test: ligand binding assay, RXRα; settings: last entry of cell, read-out: RXR Bind Ki (nM) α
T2 sequence (P19793 1-462): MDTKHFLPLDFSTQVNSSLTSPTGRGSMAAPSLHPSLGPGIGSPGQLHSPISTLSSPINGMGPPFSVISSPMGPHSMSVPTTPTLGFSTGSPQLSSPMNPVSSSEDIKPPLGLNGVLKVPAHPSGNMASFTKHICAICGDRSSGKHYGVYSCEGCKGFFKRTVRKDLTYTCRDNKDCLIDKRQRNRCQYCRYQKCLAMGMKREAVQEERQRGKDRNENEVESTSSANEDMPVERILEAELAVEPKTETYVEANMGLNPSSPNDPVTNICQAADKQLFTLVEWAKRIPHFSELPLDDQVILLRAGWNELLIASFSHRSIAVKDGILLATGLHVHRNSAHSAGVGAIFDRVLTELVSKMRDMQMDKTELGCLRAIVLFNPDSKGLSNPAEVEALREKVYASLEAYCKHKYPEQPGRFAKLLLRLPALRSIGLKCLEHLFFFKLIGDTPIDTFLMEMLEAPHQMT
Source text: as §1

[3] = biological target: T3, RXRγ (UniProt P28705); test: receptor transactivation assay, RXRγ; format: cell-based; set-up: RXR Trans; other: RXRγ; first entry of cell; settings: for EC50: first entry of cell, read-out: RXR Trans. EC50 (nM) γ; for RXR Trans. γ, number in parentheses after EC50: parenthesised number, not defined in the patent
T3 sequence (P28705 1-463): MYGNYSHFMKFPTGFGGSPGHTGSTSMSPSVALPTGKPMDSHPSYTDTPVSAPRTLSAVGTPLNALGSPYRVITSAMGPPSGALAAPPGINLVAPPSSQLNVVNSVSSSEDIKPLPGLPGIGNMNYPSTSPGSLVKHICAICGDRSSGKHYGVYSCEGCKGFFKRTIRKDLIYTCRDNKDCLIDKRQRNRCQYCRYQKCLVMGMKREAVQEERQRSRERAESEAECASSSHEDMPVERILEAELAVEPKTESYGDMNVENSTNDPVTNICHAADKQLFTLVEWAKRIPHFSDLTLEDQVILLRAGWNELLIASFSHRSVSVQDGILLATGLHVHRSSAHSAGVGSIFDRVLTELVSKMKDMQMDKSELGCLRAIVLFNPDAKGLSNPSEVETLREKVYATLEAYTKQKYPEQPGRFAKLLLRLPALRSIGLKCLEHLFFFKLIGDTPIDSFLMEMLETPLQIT
Source text: as §1

[4] = biological target: T4, RARγ (Homo sapiens, UniProt P13631); test: ligand binding assay, RARγ; settings: second entry of cell, read-out: RAR Bind. Ki (nM) γ
T4 sequence (P13631 1-454): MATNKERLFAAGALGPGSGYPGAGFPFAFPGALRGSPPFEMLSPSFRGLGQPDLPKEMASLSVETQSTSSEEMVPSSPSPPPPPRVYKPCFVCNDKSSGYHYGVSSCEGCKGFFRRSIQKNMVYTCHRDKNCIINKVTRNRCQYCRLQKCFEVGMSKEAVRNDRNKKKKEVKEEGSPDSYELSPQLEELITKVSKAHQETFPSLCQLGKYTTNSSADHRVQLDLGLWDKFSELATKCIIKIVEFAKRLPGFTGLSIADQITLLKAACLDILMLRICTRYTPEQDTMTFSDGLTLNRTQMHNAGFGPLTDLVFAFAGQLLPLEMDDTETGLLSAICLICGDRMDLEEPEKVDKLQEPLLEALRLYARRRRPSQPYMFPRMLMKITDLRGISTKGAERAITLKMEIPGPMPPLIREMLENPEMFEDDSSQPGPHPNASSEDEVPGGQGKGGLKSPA
Source text: as §1

SMILES	Ki [1]	Ki [2]	EC50 [3]	RXR Trans. γ, number in parentheses after EC50 [3]	Ki [4]
CC(/C=C/[C@@H]1C[C@]1(C)c1cc(Br)c2c(c1)C(C)(C)CO2)=C\C(=O)O [Compound 20, (6S,7S)-7-[5-(7-Bromo-3,3-dimethyl-2,3-dihydro-benzofuranyl)]-6,7-methano-3-methyl-octa-2E,4E-dienoic Acid]	21.5 nM	7.1 nM	3.4 nM	111	> 10000 nM
CC(/C=C/[C@@H]1C[C@]1(C)c1cc(-c2ccccc2)c2c(c1)C(C)(C)CO2)=C\C(=O)O [Compound 22, 6S,7S)-7-[5-(3,3-Dimethyl-7-phenyl-2,3-dihydro-benzofuranyl)1-6,7-methano-3-methyl-octa-2E,4E-dienoic acid]	9.6 nM	2.3 nM	12.8 nM	110	> 5260 nM
COc1ccc(-c2cc([C@@]3(C)C[C@H]3/C=C/C(C)=C/C(=O)O)cc3c2OCC3(C)C)cc1 [Compound 32, (E)-3-((E)-2-{(1S,2S)-2-[7-(4-Methoxy-phenyl)-3,3-dimethyl-2,3-dihydro-benzofuran-5-yl]-2-methyl-cyclopropyl}-vinyl)-but-2-enoic acid]	926 nM	66 nM	561 nM	106	> 10000 nM
CC(/C=C/[C@@H]1C[C@@H]1c1ccc2c(c1)C(C)(C)CO2)=C\C(=O)O [Compound 36, (E)-3-{(E)-2-F[(1S,2S)-2-(3,3-Dimethyl-2,3-dihydro-benzofuran-5-yl)-cyclopropyl]-vinyl}-but-2-enoic acid]	312 nM	114 nM	743 nM	109	> 10000 nM
CCCCCCc1cc([C@@]2(C)C[C@H]2/C=C/C(C)=C/C(=O)O)cc2c1OCC2(C)C [Compound 18, (6S,7S)-7-[5-(3,3-Dimethyl-7-hexyl-2,3-dihydro-benzofuranyl)]-6,7-methano-3-methyl-octa-2E,4E-dienoic acid]	5.1 nM	1.9 nM	0.36 nM	99	9260 nM
